Experimental data published in patent US9353082B2, “Pharmaceutical compounds” (BIAL—PORTELA & CA, S.A., priority 2008, dated 2016).

Key:
FAAH [1] = biological target: T1, FAAH (Mus musculus, UniProt O08914); test: In vivo FAAH inhibition after oral dosing, remaining activity in liver homogenate (LVh, peripheral tissue); set-up: species or system NMRI mice; conditions: liver homogenate; for In Vivo LVh 3 mg·kg 8 h (remaining FAAH activity, % of control): 8 h after dosing, low value = strong inhibitor
T1 construct: A fragment of liver, left lung lobe and brain without cerebellum were removed; from tissue; host or cells: male NMRI mice; brain (without cerebellum) and liver homogenates
T1 sequence (O08914 1-579): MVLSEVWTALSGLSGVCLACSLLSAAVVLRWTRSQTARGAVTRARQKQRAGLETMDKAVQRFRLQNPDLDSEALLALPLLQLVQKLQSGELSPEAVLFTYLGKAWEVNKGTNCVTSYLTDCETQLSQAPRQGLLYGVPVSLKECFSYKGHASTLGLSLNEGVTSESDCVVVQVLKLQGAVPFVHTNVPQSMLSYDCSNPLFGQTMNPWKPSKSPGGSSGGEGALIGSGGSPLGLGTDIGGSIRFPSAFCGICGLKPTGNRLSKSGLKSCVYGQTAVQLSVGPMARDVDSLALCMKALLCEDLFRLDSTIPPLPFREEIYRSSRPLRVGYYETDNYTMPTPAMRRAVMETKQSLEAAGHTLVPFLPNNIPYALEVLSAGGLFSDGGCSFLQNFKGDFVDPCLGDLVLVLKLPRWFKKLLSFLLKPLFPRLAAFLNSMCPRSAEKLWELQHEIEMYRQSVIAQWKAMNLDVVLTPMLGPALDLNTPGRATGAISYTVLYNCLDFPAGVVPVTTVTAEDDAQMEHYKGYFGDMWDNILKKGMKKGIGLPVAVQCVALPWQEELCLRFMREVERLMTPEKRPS
Outline: (§1)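 Remaining FAAH activity is given as % of vehicle-treated controls after blank subtraction, measured by radiolabelled AEA hydrolysis (2 μM AEA, 5 nM 3H-AEA, 37 °C) in brain (10 min) or liver (7 min) homogenates. These came from fasted male NMRI mice dosed orally at 30 or 3 mg/kg.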

FAAH [2] = biological target: T2, FAAH (Rattus norvegicus, UniProt P97612); test: In vitro FAAH activity in rat brain membranes, 3H-AEA substrate, % of control; format: biochemical, Wistar rats; conditions: low value = strong inhibitor; for In Vitro FAAH activity, 100 nM: 100 nM test compound; for In Vitro FAAH activity, 10 uM: 10 uM test compound; for In Vitro 100 nM (FAAH activity, % of control): rat brain membranes, compound at 100 nM
T2 construct: Frozen brains (without cerebellum) from Wistar rats were used; from tissue; host or cells: Wistar rat brain (without cerebellum), washed membrane pellets
T2 sequence (P97612 1-579): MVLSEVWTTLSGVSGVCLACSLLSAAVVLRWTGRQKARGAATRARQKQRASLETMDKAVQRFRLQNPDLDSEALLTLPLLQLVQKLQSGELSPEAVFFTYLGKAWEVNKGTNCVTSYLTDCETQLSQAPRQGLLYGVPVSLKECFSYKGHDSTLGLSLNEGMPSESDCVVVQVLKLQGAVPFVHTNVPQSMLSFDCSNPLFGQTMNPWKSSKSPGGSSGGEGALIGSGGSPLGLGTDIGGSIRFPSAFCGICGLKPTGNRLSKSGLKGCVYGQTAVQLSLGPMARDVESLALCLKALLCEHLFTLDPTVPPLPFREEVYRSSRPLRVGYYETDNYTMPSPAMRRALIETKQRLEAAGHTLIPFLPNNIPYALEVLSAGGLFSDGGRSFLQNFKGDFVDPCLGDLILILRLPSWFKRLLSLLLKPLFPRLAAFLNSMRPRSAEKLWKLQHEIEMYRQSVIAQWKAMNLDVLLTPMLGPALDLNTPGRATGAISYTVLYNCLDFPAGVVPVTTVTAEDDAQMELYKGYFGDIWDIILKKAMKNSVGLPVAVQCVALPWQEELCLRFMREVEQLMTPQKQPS
Outline: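 FAAH activity measured as 3H-ethanolamine released from 2 μM [3H]AEA over 10 min by rat brain membrane preparation, after 15 min 37 °C preincubation with test compound at 10 or 0.1 μM. Charcoal-separated supernatant scintillation-counted; values expressed as % of control minus no-protein blank.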

FAAH [3] = biological target: T1, FAAH; test: In vivo FAAH inhibition after oral dosing, remaining activity in brain homogenate (BRh, central nervous tissue); set-up: species or system NMRI mice; conditions: brain homogenate; for In Vivo BRh 3 mg·kg 8 h (remaining FAAH activity, % of control): 8 h after dosing, low value = strong inhibitor
Outline: as §1

SMILES | In Vivo LVh 30 mg/kg 1 h, remaining FAAH activity (FAAH [1]) | In Vitro FAAH activity, 100 nM (FAAH [2]) | In Vitro FAAH activity, 10 uM (FAAH [2]) | In Vivo BRh 30 mg/kg 1 h, remaining FAAH activity (FAAH [3]) | In Vivo LVh 3 mg/kg 8 h, remaining FAAH activity (FAAH [1]) | In Vivo BRh 3 mg/kg 8 h, remaining FAAH activity (FAAH [3]) | In Vivo LVh 3 mg·kg 8 h (remaining FAAH activity, % of control) (FAAH [1]) | In Vitro 100 nM (FAAH activity, % of control) (FAAH [2]) | In Vivo BRh 3 mg·kg 8 h (remaining FAAH activity, % of control) (FAAH [3])
CN(C(=O)n1cnc(-c2ccc3ccccc3c2)c1)c1ccccc1 [Compound 14, N-methyl-4-(naphthalen-2-yl)-N-phenyl-1H-imidazole-1-carboxamide] | 77.3 % of control | 68.3 % of control | 0 % of control | 96.7 % of control | – | – | – | – | –
COc1ccc(-c2ncn(C(=O)N3COCC3(C)C)n2)cc1 [Compound 188, (4,4-dimethyloxazolidin-3-yl)(3-(4-methoxyphenyl)-1H-1,2,4-triazol-1-yl)methanone] | – | 103.3 % of control | – | – | 89 % of control | 78.7 % of control | – | – | –
CN(C(=O)n1cnc(-c2ccc(C(N)=O)cc2)c1)c1ccccc1 [Compound 113, 4-(4-carbamoylphenyl)-N-methyl-N-phenyl-1H-imidazole-1-carboxamide] | – | 90.3 % of control | – | – | 32.3 % of control | 84.1 % of control | – | – | –
CC1(C)COCN1C(=O)n1cnc(-c2cccs2)n1 [Compound 213, (4,4-dimethyloxazolidin-3-yl)(3-(thiophen-2-yl)-1H-1,2,4-triazol-1-yl)methanone] | – | 105.6 % of control | – | – | 6.9 % of control | 53.7 % of control | – | – | –
COc1ccc(OCCC2CCN(C(=O)n3nnc4ccccc43)CC2)cc1 [Compound 144, (1H-benzo[d][1,2,3]triazol-1-yl)(4-(2-(4-methoxyphenoxy)ethyl)piperidin-1-yl)methanone] | – | 0.1 % of control | – | – | 17.6 % of control | 68.2 % of control | – | – | –
O=C(N1CCC(c2ccncc2)CC1)n1nnc2ccccc21 [Compound 114, (1H-benzo[d][1,2,3]triazol-1-yl)(4-(pyridin-4-yl)piperidin-1-yl)methanone] | – | 0.1 % of control | – | – | 109.9 % of control | 102.9 % of control | – | – | –
NC(=O)c1ccc(Oc2ccc(-c3ncn(C(=O)N4CCN(c5ccccc5)CC4)n3)cc2)cc1 [Compound 148, 4-(4-(1-(4-phenylpiperazine-1-carbonyl)-1H-1,2,4-triazol-3-yl)phenoxy)benzamide] | – | 0.3 % of control | – | – | 87.6 % of control | 113.7 % of control | – | – | –
CC1(C)COCN1C(=O)n1cnc(-c2cccc(-c3ccccc3)c2)c1 [Compound 231, (4-(biphenyl-3-yl)-1H-imidazol-1-yl)(4,4-dimethyloxazolidin-3-yl)methanone] | – | 54.2 % of control | – | – | 3.6 % of control | 3.9 % of control | – | – | –
O=C(N1CCC2(CC1)OCCO2)n1nnc2ccccc21 [Compound 55, 1H-benzo[d][1,2,3]triazol-1-yl(1,4-dioxa-8-azaspiro[4.5]dec-8-yl)methanone] | 2.5 % of control | 0.2 % of control | – | 2.2 % of control | 37.8 % of control | 42.6 % of control | – | – | –
CC1(C)COCN1C(=O)n1cnc(-c2ccc(F)c(O)c2)c1 [Compound 333, (4,4-dimethyloxazolidin-3-yl)(4-(4-fluoro-3-hydroxyphenyl)-1H-imidazol-1-yl)methanone] | – | – | – | – | – | – | 81.5 % of control | 81.9 % of control | 119 % of control
O=C(N1CCc2ccccc2C1)n1nnc2ccccc21 [Compound 50, (1H-benzo[d][1,2,3]triazol-1-yl)(3,4-dihydroisoquinolin-2(1H)-yl)methanone] | 7.8 % of control | 0 % of control | – | 32.6 % of control | – | – | – | – | –
COc1ccc(OCCN(C)C(=O)n2nnc3ccccc32)cc1 [Compound 157, N-(2-(4-methoxyphenoxy)ethyl)-N-methyl-1H-benzo[d][1,2,3]triazole-1-carboxamide] | – | 0 % of control | – | – | 3.5 % of control | 5.2 % of control | – | – | –
CN(C(=O)n1nnc2cc(Cl)ccc21)c1ccccc1 [Compound 33, 5-chloro-N-methyl-N-phenyl-1H-benzo[d][1,2,3]triazole-1-carboxamide] | 76.7 % of control | 6.2 % of control | 0 % of control | 82.3 % of control | – | – | – | – | –
CN(C(=O)n1cnc(-c2ccc(OC(F)F)cc2)c1)C1CCCCC1 [Compound 276, N-cyclohexyl-4-(4-(difluoromethoxy)phenyl)-N-methyl-1H-imidazole-1-carboxamide] | – | – | – | – | – | – | 2 % of control | 71.5 % of control | 1.4 % of control
CN1CCN(c2ccc(-c3ncn(C(=O)N4CCOCC4)n3)cc2)CC1 [Compound 139, (3-(4-(4-methylpiperazin-1-yl)phenyl)-1H-1,2,4-triazol-1-yl)(morpholino)methanone] | – | 80.2 % of control | – | – | 105.7 % of control | 97.1 % of control | – | – | –
COc1cc(-c2cn(C(=O)N3COCC3(C)C)cn2)ccc1O [Compound 228, (4,4-dimethyloxazolidin-3-yl)(4-(4-hydroxy-3-methoxyphenyl)-1H-imidazol-1-yl)methanone] | – | 78.1 % of control | – | – | 31.9 % of control | 56.4 % of control | – | – | –
CC1(C)COCN1C(=O)n1nnc2ccc(-c3ccccc3)cc21 [Compound no. 361, (4,4-dimethyloxazolidin-3-yl)(6-phenyl-1H-benzo[d][1,2,3]triazol-1-yl)methanone] | – | – | – | – | – | – | 1.4 % of control | 1.3 % of control | 6.3 % of control
O=C(N1CCN(c2ccccc2)CC1)n1nnc2ccccc21 [Compound 41, (1H-benzo[d][1,2,3]triazol-1-yl)(4-phenylpiperazin-1-yl)methanone] | 30 % of control | 0 % of control | 0 % of control | 87.6 % of control | – | – | – | – | –
COc1cccc(-c2cccc(-c3cn(C(=O)N4COCC4(C)C)cn3)c2)c1 [Compound 236, (4,4-dimethyloxazolidin-3-yl)(4-(3′-methoxybiphenyl-3-yl)-1H-imidazol-1-yl)methanone] | – | 75.4 % of control | – | – | 37.7 % of control | 67.7 % of control | – | – | –
